Legend:
[1] = biological target: T1, Human A2BR (Homo sapiens, UniProt P29275); assay: Human 2B Adenosine Receptor CHO-K1 cAMP functional assay; type: cell-based; conditions: cAMP antagonist functional assay, CHO-K1 cells stably expressing Human A2BR, NECA stimulation; read-out: Potency: A2BR KB
T1 sequence (P29275 1-332): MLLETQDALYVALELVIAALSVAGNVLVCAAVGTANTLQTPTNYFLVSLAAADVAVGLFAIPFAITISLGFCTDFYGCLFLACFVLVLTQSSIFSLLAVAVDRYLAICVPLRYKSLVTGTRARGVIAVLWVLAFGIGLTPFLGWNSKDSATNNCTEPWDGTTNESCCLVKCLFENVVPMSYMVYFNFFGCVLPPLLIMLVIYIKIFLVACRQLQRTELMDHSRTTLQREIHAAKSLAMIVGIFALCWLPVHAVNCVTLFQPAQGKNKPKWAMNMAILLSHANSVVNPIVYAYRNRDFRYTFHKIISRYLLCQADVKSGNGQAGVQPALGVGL
Description: Measurement of the Adenosine Receptor Activity of Compounds Using a Human 2B Adenosine Receptor CHO-K1 cAMP Functional Assay
CHO-K1 cells stably expressing Human Adenosine 2B Receptor (A2BR: Cat. No. M000329, GenScript) were purchased from GenScript Inc., Piscataway, N.J. 08854, USA.
The cAMP antagonist functional assay (Perkin Elmer) was performed on CHO-K1 cells stably expressing Human A2BR. 1×10^6 cells were seeded in T75 flasks and cultured at 37° C. and 5% CO2 overnight. 2,000-4,000 cells/well of stably-expressed A2bR CHO-K1 cells were then seeded to a white 384-well Opti plate followed by compound 1 incubation at various concentrations (ranging from 1 μM to 0 μM) at 37° C. for 1 hour.
(§1) A 1:2 serial dilution of NECA (Sigma Aldrich) from 1 μM to 0 μM was added to the cell stimulation mixture and incubated for 30 min at 37° C. After 30 min incubation, 5 μL of Ulight-anti-cAMP (1:150 dilution with conjugate and lysis buffer provided by Perkin Elmer) and 5 μL of Eu-cAMP tracer (1:50 dilution with conjugate and lysis buffer provided by Perkin Elmer) was added the cells and incubated for an hour. FRET signal was detected with an Envision multilabel plate reader (Perkin Elmer) loaded with 615 nm […] filters and 665 nm emission filters.
(§2) Data analysis was performed using on GraphPad Prism (version 7.02) to determine the KB of the test compounds.

[2] = biological target: T2, Human A2AR (Homo sapiens, UniProt P29274); assay: human 2A Adenosine Receptor (A2aR) CHO-TREx cAMP functional assay; type: cell-based; conditions: cAMP antagonist functional assay, CHO-T-REx cells expressing Human A2AR, NECA stimulation; read-out: Potency: A2AR KB
T2 construct: expressed in transfected cells; host or cells: CHO-T-REx cells (inducible expression)
Description: Measurement of the Adenosine Receptor Activity of Compounds using a human 2A Adenosine Receptor (A2aR) CHO-TREx cAMP Functional Assay
The cAMP antagonist functional assay (Perkin Elmer) was performed on CHO-T-REx cells induced to express Human A2AR. Cells were seeded to a white 384-well Opti plate at a density of 1,000 to 2,500 cells per well followed by incubation with various concentrations of compound (ranging from 1 μM to 0 μM) at 37° C. for 1 hour.
as §1, §2

T2 sequence (P29274 whole entry): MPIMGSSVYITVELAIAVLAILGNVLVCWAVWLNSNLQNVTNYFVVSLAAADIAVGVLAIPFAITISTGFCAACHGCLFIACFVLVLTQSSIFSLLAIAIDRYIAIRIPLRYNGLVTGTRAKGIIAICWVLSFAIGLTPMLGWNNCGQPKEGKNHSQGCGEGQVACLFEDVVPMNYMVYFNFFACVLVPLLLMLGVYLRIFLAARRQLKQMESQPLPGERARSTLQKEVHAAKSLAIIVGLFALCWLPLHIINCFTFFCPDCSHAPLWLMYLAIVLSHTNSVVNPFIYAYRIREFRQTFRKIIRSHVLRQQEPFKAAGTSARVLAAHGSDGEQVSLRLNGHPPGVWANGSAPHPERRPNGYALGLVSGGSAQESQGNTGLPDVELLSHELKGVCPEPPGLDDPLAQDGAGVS

Compound | Kb [1] [µM] | Kb [2] [µM]
CC(C)(O)c1cccc(Cn2cc(-c3nc(N)nc4c(F)c(F)ccc34)nn2)n1 | < 0.1 | < 0.1
COCCOCc1cccc(Cn2cc(-c3nc(N)nc4c(Cl)cccc34)nn2)n1 | < 0.1 | < 0.1
COc1cccc2c(-c3cn(Cc4cccc(COC[C@H]5CCCO5)n4)nn3)nc(N)nc12 | < 0.1 | < 0.1
CCOc1cccc2c(-c3cn(Cc4cccc(C(C)(C)O)n4)nn3)nc(N)nc12 | 0.1 to 1 | < 0.1
CC(C)(O)c1cccc(Cn2cc(-c3nc(N)nc4cc(C#N)ccc34)nn2)n1 | < 0.1 | < 0.1
COc1cccc2c(-c3cn(Cc4cccc(-c5cccc(C(=O)O)c5)n4)nn3)nc(N)nc12 | < 0.1 | < 0.1
COc1cccc2c(-c3cn(Cc4cccc(-c5ccc(C(=O)O)cc5)n4)nn3)nc(N)nc12 | < 0.1 | < 0.1
COc1cccc2c(-c3cn(Cc4cccc(N5CCCC5=O)n4)nn3)nc(N)nc12 | < 0.1 | < 0.1
COc1cccc2c(-c3cn(Cc4cccc(N5CCC(O)C5)n4)nn3)nc(N)nc12 (stereo not drawn) | < 0.1 | < 0.1
COc1cccc2c(-c3cn(Cc4cccc(-c5ccccc5C(=O)O)n4)nn3)nc(N)nc12 | 0.1 to 1 | < 0.1
COc1cccc2c(-c3cn(Cc4cccc(C5(O)CCOCC5)n4)nn3)nc(N)nc12 | < 0.1 | < 0.1
COc1cccc2c(-c3cn(Cc4cccc(C5(O)COC5)n4)nn3)nc(N)nc12 | < 0.1 | < 0.1
Nc1nc(-c2cn(Cc3cccc(C4(O)COC4)n3)nn2)c2cccc(F)c2n1 | 0.1 to 1 | < 0.1
COc1ccc2c(-c3cn(Cc4cccc(C(C)(C)O)n4)nn3)nc(N)nc2c1 | < 0.1 | < 0.1
COc1cccc2c(-c3cn(Cc4cccc(C(C)(C)CO)n4)nn3)nc(N)nc12 | < 0.1 | < 0.1
CC(C)(CO)c1cccc(Cn2cc(-c3nc(N)nc4c(F)cccc34)nn2)n1 | < 0.1 | < 0.1
COc1c(F)ccc2c(-c3cn(Cc4cccc(C(C)(C)CO)n4)nn3)nc(N)nc12 | < 0.1 | < 0.1
COc1c(F)ccc2c(-c3cn(Cc4cccc(C5(O)COC5)n4)nn3)nc(N)nc12 | < 0.1 | < 0.1
COc1cccc2c(-c3cnn(Cc4cccc(C5(O)CCC5)n4)c3)nc(N)nc12 | < 0.1 | < 0.1
COc1cccc2c(-c3cn(Cc4cccc(C(C)(O)C(F)(F)F)n4)nn3)nc(N)nc12 (stereo not drawn) | < 0.1 | < 0.1
COc1cccc2c(-c3cn(Cc4cccc([C@](C)(O)C(F)(F)F)n4)nn3)nc(N)nc12 | < 0.1 | < 0.1
COc1cccc2c(-c3cn(Cc4cccc([C@@](C)(O)C(F)(F)F)n4)nn3)nc(N)nc12 | < 0.1 | < 0.1
COc1cc(F)cc2c(-c3cn(Cc4cccc(C(C)(C)O)n4)nn3)nc(N)nc12 | < 0.1 | < 0.1
CCOC(=O)N1CCC(c2cccc(Cn3cc(-c4nc(N)nc5c(OC)cccc45)nn3)n2)CC1 | < 0.1 | < 0.1
COc1cccc2c(-c3cn(Cc4cccc(C(C)(C)O)n4)nn3)nc(NC(C)C)nc12 | < 0.1 | < 0.1
COc1cccc2c(-c3cn(Cc4cccc(C(C)(C)O)n4)nn3)nc(NC3CC3)nc12 | < 0.1 | < 0.1
COc1cccc2c(-c3cn(Cc4cccc(C(C)(C)O)n4)nn3)nc(N[C@H]3CCOC3)nc12 | < 0.1 | < 0.1

— US11045472B2, “Quinazoline-pyridine derivatives for the treatment of cancer-related disorders” (ARCUS BIOSCIENCES, INC., priority 2017, dated 2021)
